Values after ≈ are worked out from the molar mass of the structure shown.
Assays:
human hepatocytes = experiment: Metabolic stability with human hepatocytes; type: in vitro ADME; conditions: human hepatocyte suspension, 1 μM test compound, scaled with well stirred model
Experimental: Assay for the Determination of Metabolic Stability with Human Hepatocytes The metabolic degradation of the test compound is assayed in a human hepatocyte suspension. Human hepatocytes (typically cryopreserved) are incubated in an appropriate buffer system (e.g. […] Samples are transferred into acetonitrile and pelleted by centrifugation (5 min) The supernatant is transferred to a new 96-deepwell plate, evaporated under nitrogen and resuspended. The decline of parent compound is analyzed by LC-MS/MS.

Aqueous solubility = type: physicochemical; conditions: McIlvaine buffer pH 6.8, 2.5% DMSO, 24 h shaking; for solubility at 24 h: McIlvaine buffer pH 6.8 with 2.5% DMSO, pH 6.8, aqueous buffer, kinetic from dmso stock
Experimental: Assay for Determination of Aqueous Solubility […] After 24 h of shaking, the solutions or suspensions are filtered and analyzed by LC-UV. The amount dissolved in buffer is compared to the amount dissolved in the acetonitrile/water (1/1) solution.

[1] = Metabolic stability with human liver microsomes; type: in vitro ADME; conditions: for half-life at 1 μM: human, microsomes, pH 7.6
[2] = Drug transport across human Caco-2 cells; type: in vitro ADME; conditions: human; for Papp A→B at 10 µM / Papp B→A at 10 µM: Caco-2, pH 7.2, Caco-2 monolayers, pH 7.2, 37° C.; for Papp A→B at 10 µM: apical-to-basal, read-out: PEAB; for Papp B→A at 10 µM: basal-to-apical, read-out: PEBA; for efflux ratio at 10 μM: Caco-2, pH 7.2, PEBA/PEAB, Caco-2
Excerpt: Assay for Determination of Drug Transport Across Human Caco-2 Cells The assay provides information on the potential of a compound to pass the cell membrane, on the extent of oral absorption as well as on whether the compound is actively transported by uptake and/or efflux transporters. […] The compounds are assigned to permeability/absorption classes by comparison of the AB permeabilities with the AB permeabilities of reference compounds with known in vitro permeability and oral absorption in the human. Identical or similar permeabilities in both transport directions indicate passive permeation, vectorial permeability points to additional active transport mechanisms. […] Active transport is concentration-dependently saturable. Caco-2 cells (1-2*10^5 cells/cm^2 area) are seeded on filter inserts (Costar transwell polycarbonate or PET filters, 0.4 nm pore size) and cultured (DMEM) for 10 to 25 days. […] The transport solution (TL) is applied ici to the apical or basolateral donor side for measuring A-B or B-A permeability (3 filter replicates), respectively. The receiver side contains HTP-4 buffer supplemented with 2% BSA. […] Sampled receiver volumes are replaced with fresh receiver solution.

[3] = target: Human neutrophil elastase (Homo sapiens (Human), UniProt P08246); experiment: Human Neutrophil Elastase Assay; type: biochemical; conditions: human neutrophil elastase, substrate MeOSuc-Ala-Ala-Pro-Val-AMC 250 μM, pH 7.5; read-out: IC50
Human neutrophil elastase, sequence (P08246 30-247): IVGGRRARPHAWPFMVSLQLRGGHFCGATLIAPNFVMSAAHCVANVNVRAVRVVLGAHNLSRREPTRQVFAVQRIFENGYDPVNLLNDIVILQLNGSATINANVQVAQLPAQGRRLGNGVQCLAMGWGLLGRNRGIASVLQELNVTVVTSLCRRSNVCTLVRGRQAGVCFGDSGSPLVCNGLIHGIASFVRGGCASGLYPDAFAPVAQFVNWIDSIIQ

[4] = target: neutrophil elastase in human plasma (Homo sapiens (Human), UniProt P08246); experiment: Neutrophil elastase inhibitory activity in human plasma (zymosan-stimulated blood); type: biochemical; conditions: neutrophil elastase enriched human plasma from zymosan-stimulated blood; read-out: EC50
neutrophil elastase in human plasma, sequence (P08246 30-247): as above
Experimental: Assay for the Determination of Neutrophil Elastase Inhibitory Activity in Human Plasma
Citrated blood from human healthy donors is mixed with zymosan suspension and incubated at room temperature. This leads to the stimulation of neutrophils and the release of neutrophil elastase into the plasma. The stimulated blood is centrifuged to generate the neutrophil elastase enriched plasma.
Various concentrations of the neutrophil elastase inhibitor are incubated with plasma. […] A dose response curve is generated to calculate the EC50 of the inhibitor.

## CN(C)C(=O)CN1C(=O)N(c2cccc(C(F)(F)F)c2)C2=C(C(=O)CC2)C1c1ccc(C#N)cc1 (stereo not shown) [Example 6.2]
Human hepatocytes
  CL (predicted human hepatic in vivo blood clearance): 6 mL/min/kg
Aqueous solubility
  Aqueous solubility: 77 µg/mL

## N#Cc1ccc(C2C3=C(CCC3=O)N(c3cccc(C(F)(F)F)c3)C(=O)N2CC(=O)N2CCC2)cc1 (stereo not shown) [Example 6.3]
[1]; pooled human liver microsomes, 1 mg/ml protein, 1 μM test compound, 37° C., NADPH
  t1/2 INVITRO: >2.17 h
Human hepatocytes
  CL (predicted human hepatic in vivo blood clearance): 4 mL/min/kg
Aqueous solubility
  Aqueous solubility: 121 µg/mL

## CNC(=O)N1C(=O)N(c2cccc(C(F)(F)F)c2)C2=C(C(=O)CC2)[C@H]1c1ccc(C#N)cc1 [Example 7.1A, (R)-4-(4-Cyanophenyl)-N-methyl-2,5-dioxo-1-(3-(trifluoromethyl)phenyl)-4,5,6,7-tetrahydro-1H-cyclopenta[d]pyrimidine-3(2H)-carboxamide]
[1]
  half-life at 1 μM: > 2.17 h
Human hepatocytes
  CL (predicted human hepatic in vivo blood clearance): 3 mL/min/kg
[2]
  Papp A→B at 10 µM: 72.7 ×10⁻⁶ cm/s
  Papp B→A at 10 µM: 68.1 ×10⁻⁶ cm/s
Aqueous solubility
  solubility at 24 h: 23 µg/mL (≈ 50.6 µM)

## N#Cc1ccc([C@@H]2C3=C(CCC3=O)N(c3cccc(C(F)(F)F)c3)C(=O)N2C(=O)NCCO)cc1 [Example 7.2A, (R)-4-(4-Cyanophenyl)-N-(2-hydroxyethyl)-2,5-dioxo-1-(3-(trifluoromethyl)phenyl)-4,5,6,7-tetrahydro-1H-cyclopenta[d]pyrimidine-3(2H)-carboxamide]
[1]
  half-life at 1 μM: > 2.17 h
Human hepatocytes
  CL (predicted human hepatic in vivo blood clearance): 0 mL/min/kg
[2]
  Papp A→B at 10 µM: 4.03 ×10⁻⁶ cm/s
  Papp B→A at 10 µM: 63.3 ×10⁻⁶ cm/s
Aqueous solubility
  solubility at 24 h: 72 µg/mL (≈ 149 µM)

## CCS(=O)(=O)c1cc(C#N)ccc1C1NC(=O)N(c2cccc(C(F)(F)F)c2)C2=C1C(=O)CC2 (stereo not shown) [Example 14, 4-(2,5-Dioxo-1-(3-(trifluoromethyl)phenyl)-2,3,4,5,6,7-hexahydro-1H-cyclopenta[d]pyrimidin-4-yl)-3-(ethylsulfonyl)benzonitrile]
[3]
  IC50: 4.7 nM
[1]
  half-life at 1 μM: > 2.17 h
Human hepatocytes
  CL (predicted human hepatic in vivo blood clearance): 4 mL/min/kg
Aqueous solubility
  solubility at 24 h: 45 µg/mL (≈ 91.9 µM)

## CS(=O)(=O)c1cc(C#N)ccc1C1NC(=O)N(c2cccc(C(F)F)c2)C2=C1C(=O)CC2 (stereo not shown) [Example 15.4, 4-(1-(3-(difluoromethyl)phenyl)-2,5-dioxo-2,3,4,5,6,7-hexahydro-1H-cyclopenta[d]pyrimidin-4-yl)-3-(methylsulfonyl)benzonitrile]
[3]
  IC50: 9.7 nM
[1]
  half-life at 1 μM: > 2.17 h
Human hepatocytes
  CL (predicted human hepatic in vivo blood clearance): 0 mL/min/kg
Aqueous solubility
  solubility at 24 h: 69 µg/mL (≈ 151 µM)

## CS(=O)(=O)c1cc(C#N)ccc1[C@H]1NC(=O)N(c2cccc(C(F)F)c2)C2=C1C(=O)CC2 [Example 15.4A, (S)-4-(1-(3-(Difluoromethyl)phenyl)-2,5-dioxo-2,3,4,5,6,7-hexahydro-1H-cyclopenta[d]pyrimidin-4-yl)-3-(methylsulfonyl)benzonitrile]
[3]
  IC50: 2.9 nM
[4]
  EC50: 2 nM
[1]
  half-life at 1 μM: > 2.17 h
[2]
  Papp A→B at 10 µM: 3 ×10⁻⁶ cm/s
  Papp B→A at 10 µM: 46 ×10⁻⁶ cm/s
  efflux ratio at 10 μM: 15
Aqueous solubility
  solubility at 24 h: 69 µg/mL (≈ 151 µM)

## N#CCN1C(=O)N(c2cccc(C(F)(F)F)c2)C2=C(C(=O)CC2)C1c1ccc(C#N)cc1 (stereo not shown) [Example 22, 4-(3-(Cyanomethyl)-2,5-dioxo-1-(3-(trifluoromethyl)phenyl)-2,3,4,5,6,7-hexahydro-1H-cyclopenta[d]pyrimidin-4-yl)benzonitrile]
[3]
  IC50: 25.6 nM
[4]
  EC50: 23 nM
[1]
  half-life at 1 μM: > 2.17 h
[2]
  Papp A→B at 10 µM: 36.5 ×10⁻⁶ cm/s
  Papp B→A at 10 µM: 54.5 ×10⁻⁶ cm/s
  efflux ratio at 10 μM: 1.5
Aqueous solubility
  solubility at 24 h: 13 µg/mL (≈ 29.8 µM)

## CN1C(=O)N(c2cccc(C(F)(F)F)c2)C2=C(C(=O)CC2)C1c1ccc(C#N)cn1 (stereo not shown) [Example 26.1]
[3]
  IC50: 26.8 nM
[4]
  EC50: 13 nM
[1]
  half-life at 1 μM: > 2.17 h
[2]
  Papp A→B at 10 µM: 67.7 ×10⁻⁶ cm/s
  Papp B→A at 10 µM: 64.2 ×10⁻⁶ cm/s
  efflux ratio at 10 μM: 0.9
Aqueous solubility
  solubility at 24 h: 41 µg/mL (≈ 99.4 µM)

## CN1C(=O)N(c2cccc(C(F)F)c2)C2=C(C(=O)CC2)[C@H]1c1ccc(C#N)cc1 [Example 26A, (R)-4-(1-(3-(Difluoromethyl)phenyl)-3-methyl-2,5-dioxo-2,3,4,5,6,7-hexahydro-1H-cyclopenta[d]pyrimidin-4-yl)benzonitrile]
[3]
  IC50: 2.4 nM
[4]
  EC50: 2 nM
[1]
  half-life at 1 μM: > 2.17 h
[2]
  Papp A→B at 10 µM: 72 ×10⁻⁶ cm/s
  Papp B→A at 10 µM: 76 ×10⁻⁶ cm/s
  efflux ratio at 10 μM: 1.1
Aqueous solubility
  solubility at 24 h: 41 µg/mL (≈ 104 µM)

## COC(=O)N1C(=O)N(c2cccc(C(F)(F)F)c2)C2=C(C(=O)CC2)[C@H]1c1ccc(C#N)cc1S(C)(=O)=O [Example 33, (S)-Methyl 4-(4-cyano-2-(methylsulfonyl)phenyl)-2,5-dioxo-1-(3-(trifluoromethyl)-phenyl)-4,5,6,7-tetrahydro-1H-cyclopenta[d]pyrimidine-3(2H)-carboxylate]
[3]
  IC50: < 1 nM
[4]
  EC50: < 1 nM
[1]
  half-life at 1 μM: > 2.17 h
[2]
  Papp A→B at 10 µM: 9.08 ×10⁻⁶ cm/s
  Papp B→A at 10 µM: 71.2 ×10⁻⁶ cm/s
  efflux ratio at 10 μM: 7.8
Aqueous solubility
  solubility at 24 h: 43 µg/mL (≈ 80.6 µM)

## N#Cc1ccc(C2C3=C(CCC3=O)N(c3cccc(C(F)(F)F)c3)C(=O)N2C(=O)N[C@H]2CCC[C@@H]2O)cc1 (stereo partly shown) [Example 42.4]
[1]
  half-life at 1 μM: > 2.17 h
Human hepatocytes
  CL (predicted human hepatic in vivo blood clearance): 0 mL/min/kg
[2]
  Papp A→B at 10 µM: 39.7 ×10⁻⁶ cm/s
  Papp B→A at 10 µM: 78 ×10⁻⁶ cm/s
  efflux ratio at 10 μM: 2
Aqueous solubility
  solubility at 24 h: 21 µg/mL (≈ 40 µM)

## N#Cc1ccc(C2C3=C(CCC3=O)N(c3cccc(C(F)(F)F)c3)C(=O)N2C(=O)N[C@H]2COC[C@H]2O)cc1 (stereo partly shown) [Example 42.6]
Human hepatocytes
  CL (predicted human hepatic in vivo blood clearance): 5 mL/min/kg
Aqueous solubility
  solubility at 24 h: 67 µg/mL (≈ 127 µM)

## N#Cc1ccc([C@@H]2C3=C(CCC3=O)N(c3cccc(C(F)(F)F)c3)C(=O)N2C(=O)N[C@H]2COC[C@@H]2O)cc1 [Example 45.5]
[1]
  half-life at 1 μM: > 2.17 h
Human hepatocytes
  CL (predicted human hepatic in vivo blood clearance): 0 mL/min/kg
Aqueous solubility
  solubility at 24 h: 56 µg/mL (≈ 106 µM)

## CS(=O)(=O)c1cc(C#N)ccc1[C@@H]1C2=C(CCC2=O)N(c2cccc(C(F)(F)F)c2)C(=O)N1C(=O)NC1CC1 [Example 47.4]
[3]
  IC50: < 1 nM
[4]
  EC50: < 1 nM
[1]
  half-life at 1 μM: > 2.17 h
[2]
  Papp A→B at 10 µM: 7.74 ×10⁻⁶ cm/s
  Papp B→A at 10 µM: 85.5 ×10⁻⁶ cm/s
Aqueous solubility
  solubility at 24 h: 19 µg/mL (≈ 34 µM)

## CC(C)NC(=O)N1C(=O)N(c2cccc(C(F)(F)F)c2)C2=C(C(=O)CC2)[C@H]1c1ccc(C#N)cc1S(C)(=O)=O [Example 47.5]
[3]
  IC50: < 1 nM
[4]
  EC50: 1 nM
[1]
  half-life at 1 μM: > 2.17 h
[2]
  Papp A→B at 10 µM: 19.2 ×10⁻⁶ cm/s
  Papp B→A at 10 µM: 86.7 ×10⁻⁶ cm/s
Aqueous solubility
  solubility at 24 h: 16 µg/mL (≈ 28.5 µM)

## CS(=O)(=O)CCNC(=O)N1C(=O)N(c2cccc(C(F)(F)F)c2)C2=C(C(=O)CC2)C1c1ccc(C#N)cc1F (stereo not shown) [Example 49.3]
[1]
  half-life at 1 μM: > 2.17 h
Human hepatocytes
  CL (predicted human hepatic in vivo blood clearance): 0 mL/min/kg
Aqueous solubility
  solubility at 24 h: 32 µg/mL (≈ 56.7 µM)

## CNC(=O)N1C(=O)N(c2cccc(C(F)F)c2)C2=C(C(=O)CC2)C1c1ccc(C#N)cc1 (stereo not shown) [Example 52.1]
[3]
  IC50: 1.1 nM
[4]
  EC50: < 1 nM
[1]
  half-life at 1 μM: > 2.17 h
[2]
  Papp A→B at 10 µM: 57.1 ×10⁻⁶ cm/s
  Papp B→A at 10 µM: 58.3 ×10⁻⁶ cm/s
  efflux ratio at 10 μM: 1
Aqueous solubility
  solubility at 24 h: 41 µg/mL (≈ 93.9 µM)

## CC(C)(O)CNC(=O)N1C(=O)N(c2cccc(C(F)F)c2)C2=C(C(=O)CC2)C1c1ccc(C#N)cc1 (stereo not shown) [Example 52.5]
[3]
  IC50: < 1 nM
[4]
  EC50: 1 nM
[1]
  half-life at 1 μM: > 2.17 h
[2]
  Papp A→B at 10 µM: 4.45 ×10⁻⁶ cm/s
  Papp B→A at 10 µM: 62.7 ×10⁻⁶ cm/s
  efflux ratio at 10 μM: 14.1
Aqueous solubility
  solubility at 24 h: 70 µg/mL (≈ 142 µM)

## CS(=O)(=O)c1cc(C#N)ccc1C1C2=C(CCC2=O)N(c2cccc(C(F)F)c2)C(=O)N1C(=O)NC1CC1 (stereo not shown) [Example 53.3]
Human hepatocytes
  CL (predicted human hepatic in vivo blood clearance): 0 mL/min/kg
Aqueous solubility
  solubility at 24 h: 34 µg/mL (≈ 62.9 µM)

Reference: patent US9290459B1, “Substituted bicyclic dihydropyrimidinones and their use as inhibitors of neutrophil elastase activity” (Boehringer Ingelheim International GmbH, priority 2013, dated 2016)
